Test results: ChEMBL document CHEMBL5104155, “Novel etodolac derivatives as eukaryotic elongation factor 2 kinase (eEF2K) inhibitors for targeted cancer therapy” (RSC Med Chem, 2022)
Activity calls are given as the source filed them. The rule behind the calls is not given here.

Columns and labels:
Type in all cases: cell-based
[1] = target: T1, Eukaryotic elongation factor 2 kinase (Homo sapiens) (UniProt O00418); assay: Inhibition of eEF2K in human MDA-MB-231 cells assessed as decrease in phosphorylation of eEF2 at Thr56 residue at 5 uM incubated for 2 hrs by western blot analysis
T1 sequence (whole entry): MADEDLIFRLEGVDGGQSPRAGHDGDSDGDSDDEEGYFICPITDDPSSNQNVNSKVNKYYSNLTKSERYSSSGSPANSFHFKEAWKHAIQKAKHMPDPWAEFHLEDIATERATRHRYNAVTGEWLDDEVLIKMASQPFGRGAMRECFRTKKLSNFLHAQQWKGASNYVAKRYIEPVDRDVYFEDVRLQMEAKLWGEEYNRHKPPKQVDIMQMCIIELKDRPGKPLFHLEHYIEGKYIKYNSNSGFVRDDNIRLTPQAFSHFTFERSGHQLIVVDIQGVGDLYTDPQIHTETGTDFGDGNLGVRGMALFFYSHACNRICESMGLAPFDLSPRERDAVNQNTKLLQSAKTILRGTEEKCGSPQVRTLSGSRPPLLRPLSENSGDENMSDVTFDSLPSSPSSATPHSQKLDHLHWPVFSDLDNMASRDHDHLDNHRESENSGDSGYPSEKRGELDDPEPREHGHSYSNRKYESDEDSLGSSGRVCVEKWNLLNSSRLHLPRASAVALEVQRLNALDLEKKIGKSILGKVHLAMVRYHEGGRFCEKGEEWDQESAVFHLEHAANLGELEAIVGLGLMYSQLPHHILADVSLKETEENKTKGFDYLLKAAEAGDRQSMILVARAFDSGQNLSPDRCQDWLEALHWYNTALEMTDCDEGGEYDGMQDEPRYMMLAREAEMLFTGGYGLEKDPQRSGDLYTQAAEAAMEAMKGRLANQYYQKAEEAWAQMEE

[2] = target: T1, Eukaryotic elongation factor 2 kinase (Homo sapiens); assay: Inhibition of eEF2K in human MDA-MB-231 cells assessed as decrease in phosphorylation of eEF2 at Thr56 residue at 2.5 uM incubated for 2 hrs by western blot analysis
[3] = target: T1, Eukaryotic elongation factor 2 kinase (Homo sapiens); assay: Inhibition of eEF2K in human MDA-MB-231 cells assessed as decrease in phosphorylation of eEF2 at Thr56 residue at 20 uM incubated for 2 hrs by western blot analysis

Row | inhibition [1] | inhibition [2] | inhibition [3] | Compound
1 | Active | Active |  | CCc1cccc2c3c([nH]c12)C(CC)(CC(=O)N1CCN(C)CC1)OCC3 (stereo not given)
2 | Active | Active |  | CCc1cccc2c3c([nH]c12)C(CC)(CC(=O)NCCN1CCCCC1)OCC3 (stereo not given)
3 |  |  | Active | CCc1cccc2c3c([nH]c12)C(CC)(CC(=O)N1CCCCC1)OCC3 (stereo not given)
